These results are taken from patent US12540117B2, “Aniline compound used as RORγ regulator” (SHANGHAI LITEDD CO., LTD., priority 2020, dated 2026).

Molecules are shown by their SMILES.

The target in data set [1] is T1, RORγt (Homo sapiens, UniProt P51449).
T1 sequence (P51449 269-508 limits assumed): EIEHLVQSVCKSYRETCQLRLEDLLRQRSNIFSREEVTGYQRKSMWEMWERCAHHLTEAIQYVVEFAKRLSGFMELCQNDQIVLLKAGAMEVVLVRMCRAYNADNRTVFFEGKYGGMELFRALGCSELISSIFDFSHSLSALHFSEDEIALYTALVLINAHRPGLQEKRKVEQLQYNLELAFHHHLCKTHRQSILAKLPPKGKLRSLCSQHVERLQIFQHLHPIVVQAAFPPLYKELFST
Kind of data set: In vitro luciferase reporter assay of RORγt inhibition (GAL4-RORγ-LBD in HEK293T). To be noted: for IC50: IC50, RORγt luciferase reporter gene, HEK293T; for Emax % / Emax: relative maximum inhibition rate relative to AZD-0284 at 10 μM; for Emax: HEK-293T.
Text: The RORγ-LBD coding sequence was inserted into pBIND plasmid (Promega, E1581). The expression vector and a reporter vector (pGL4.35 carrying a stably integrated luciferase reporter gene driven by GAL4 promoter) were co-expressed in HEK293T host cells. When the inhibitor binds to the corresponding chimeric receptor, the chimeric receptor binds to the GAL4 binding site on the reporter gene carrier and inhibits reporter gene expression. The inhibition activity of the compounds on RORγ was determined according to the intensity of the chemiluminescence signal.
2.2 Cell Transfection • a) Balancing the Trans-IT transfection reagent at room temperature; • b) Adding 20 μl of the transfection reagent and 600 μl of Opti-MEM™ medium without contacting the tube wall, mixing uniformly through blowing and pipetting by a pipette gun, and allowing to stand at room temperature for 5 minutes; • c) Adding 10 μg of the plasmid to the transfection reagent (see Step 2.2.b), and allowing to stand at room temperature for 20 minutes; • Plasmids: 5 μg of pBIND-RORγ and 5 μg of pGL4.35 plasmids were respectively added therein; • d) Adding the mixed DNA transfection reagent to a 100 mm cell culture dish (see Step 2.1); • e) Placing the dish in an incubator at 37° C. and 5% CO2 for 5 h. […] Calculation of % Inhibition
[formula] • RLUcmpd: fluorescence value of test compounds • RLUpositive: average value of positive control • RLUvehicle: average value of negative control
IC50s of the compounds were calculated by fitting the % Inhibition and the logarithm values of the compound concentration using Graphad 8.0.

Data set [2] in a line: Pharmacokinetic (PK) assay in mice. The data set is classed as in vivo, C57BL/6 mice. Here is the method: The PK of each compound was determined as follows: 6 C57BL/6 mice (obtained from Shanghai Lingchang Biotechnology Co., Ltd.) were divided into two groups with 3 in each group. One group was administered intravenously at a dose of 1 mg/kg in the vehicle of 5% DMSO/95% (20% Captisol); the other group was administered by oral gavage at a dose of 5 mg/kg in the vehicle of 0.5% CMC-Na/0.5% Tween 80. Blood samples were collected from saphenous vein of lower leg in each group at 0, 0.083, 0.25, 0.5, 1, 2, 4, 6, 8 and 24 h after administration. Approximately 40 μL of the blood samples were collected into anticoagulant tubes containing EDTA-K2 Immediately after collection, the tubes were inverted at least 5 times to ensure uniform mixing, and then placed on ice. The blood samples collected at each time point were centrifuged at 4° C., 8000 rpm for 5 minutes to obtain plasma. Another 1.5 mL centrifuge tube was marked with the compound name, animal number, and time point, and the plasma was transferred to this tube. The plasma was stored at −80° C. until analysis.
Compound concentrations in the plasma were determined by UPLC-MS/MS method, and the pharmacokinetic parameters were calculated from the obtained data by Phoenix WinNolin 6.4 pharmacokinetic software.

Setting [3] is: C57BL/6, mouse, plasma, IV, 1 mg/kg.
The mark [4] stands for this setting: C57BL/6, mouse, plasma, Po, 5 mg/kg.

In data set [1], `CCS(=O)(=O)c1ccc2c(c1)CCN(C(C)=O)C2C(=O)Nc1ccc(C(O)(C(F)(F)F)C(F)(F)F)cc1` (single isomer, unassigned) [Example 3, (S)-2-acetyl-6-(ethylsulfonyl)-N-(4-(1,1,1,3,3,3-hexafluoro-2-hydroxypropan-2-yl)phenyl)-1,2,3,4-tetrahydroisoquinoline-1-carboxamide or (R)-2-acetyl-6-(ethylsulfonyl)-N-(4-(1,1,1,3,3,3-hexafluoro-2-hydroxypropan-2-yl)phenyl)-1,2,3,4-tetrahydrosoquinoline-1-carboxamide] had a concentration for half-maximal inhibition (IC50) of 681 nM and an Emax % of 111.3%.
In data set [1], `CCS(=O)(=O)c1ccc2c(c1)CCN(C(C)=O)C2C(=O)Nc1ccc(C(F)(C(F)(F)F)C(F)(F)F)cc1` (single isomer, unassigned) [Example 8, (R)-2-acetyl-6-(ethylsulfonyl)-N-(4-(perfluoropropan-2-yl)phenyl)-1,2,3,4-tetrahydroisoquinoline-1-carboxamide or (S)-2-acetyl-6-(ethylsulfonyl)-N-(4-(perfluoropropan-2-yl)phenyl)-1,2,3,4-tetrahydroisoquinoline-1-carboxamide] registered an Emax of 99.2% and an IC50 of 3.78 nM.
As for `CCS(=O)(=O)c1ccc2c(c1)CCN(C(C)=O)C2C(=O)Nc1ccc(C(F)(C(F)(F)F)C(F)(F)F)cc1` (single isomer, unassigned) [Example 9, (S)-2-acetyl-6-(ethylsulfonyl)-N-(4-(perfluoropropan-2-yl)phenyl)-1,2,3,4-tetrahydroisoquinoline-1-carboxamide or (R)-2-acetyl-6-(ethylsulfonyl)-N-(4-(perfluoropropan-2-yl)phenyl)-1,2,3,4-tetrahydroisoquinoline-1-carboxamide], in data set [1], the IC50 stood at 616 nM and the Emax % is given as 107.1%.
As to `CC(=O)N1Cc2cc(S(C)(=O)=O)ccc2[C@@H]1C(=O)Nc1ccc(C(O)(C(F)(F)F)C(F)(F)F)cc1` [AZD-0284, reference compound], in data set [2] (setting [3]), the AUC(0-t) stood at 1180 ng·h/mL, the peak level (Cmax) was 2480 ng/mL and the half-life is 7.75 h. Also, the Vd in data set [2] (C57BL/6, mouse, plasma, IV, 1 mg/kg, read-out: Vss) came to 6.29 L/kg. For the same compound, the bioavailability in data set [2] (C57BL/6, mouse, plasma, Po 5 mg/kg vs IV 1 mg/kg) was 38%. For the same compound, in data set [2] (setting [4]), the AUC(0-t) was 2780 ng·h/mL, the highest level (Cmax) was 264 ng/mL and the half-life is 3.35 h. For the same compound, the CL_obs in data set [2] (IV, 1 mg/kg) is listed as 12.6 mL/min/kg.
As to `CCS(=O)(=O)c1ccc2c(c1)CCN(C(=O)CCC(=O)O)C2C(=O)Nc1ccc(C(O)(C(F)(F)F)C(F)(F)F)cc1` (stereo not shown) [Example 4, 4-(6-(Ethylsulfonyl)-1-((4-(1,1,1,3,3,3-hexafluoro-2-hydroxypropan-2-yl)phenyl)carbamoyl)-3,4-dihydroisoquinolin-2(1H)-yl)-4-oxobutanoic acid], in data set [1], the Emax came out at 73.8% and the IC50 came out at 3050 nM.
In data set [1], `CCS(=O)(=O)c1ccc2c(c1)CCN(C(C)=O)C2C(=O)Nc1ccc(C(O)(C(F)(F)F)C(F)(F)F)cc1F` (stereo not shown) [Example 10, 2-Acetyl-6-(ethylsulfonyl)-N-(2-fluoro-4-(1,1,1,3,3,3-hexafluoro-2-hydroxypropan-2-yl)phenyl)-1,2,3,4-tetrahydroisoquinoline-1-carboxamide] displayed an Emax of 102% and an IC50 of 40.5 nM.
In data set [1], `CC(=O)N1CCc2cc(S(C)(=O)=O)ccc2C1C(=O)Nc1ccc(C(O)(C(F)(F)F)C(F)(F)F)cc1F` (stereo not shown) [Example 11, 2-Acetyl-N-(2-fluoro-4-(1,1,1,3,3,3-hexafluoro-2-hydroxypropan-2-yl)phenyl)-6-(methylsulfonyl)-1,2,3,4-tetrahydroisoquinoline-1-carboxamide] returned an Emax of 104% and a half-maximal inhibitory concentration (IC50) of 91.3 nM.
As for `CCS(=O)(=O)c1ccc2c(c1)CCN(C(C)=O)C2C(=O)Nc1ccc(OC(F)(F)F)cc1` (stereo not shown) [Example 12, 2-Acetyl-6-(ethylsulfonyl)-N-(4-(trifluoromethoxy)phenyl)-1,2,3,4-tetrahydroisoquinoline-1-carboxamide], in data set [1], the Emax was determined as 95.7% and the IC50 is 290 nM.
On to `CCC(=O)N1CCc2cc(S(=O)(=O)CC)ccc2C1C(=O)Nc1ccc(C(O)(C(F)(F)F)C(F)(F)F)cc1` (stereo not shown) [Example 13, 6-(Ethylsulfonyl)-N-(4-(1,1,1,3,3,3-hexafluoro-2-hydroxypropan-2-yl)phenyl)-2-propionyl-1,2,3,4-tetrahydroisoquinoline-1-carboxamide], for which, in data set [1], the Emax stood at 101% and the half-maximal inhibitory concentration (IC50) turned out to be 154 nM.
In data set [1], `CCS(=O)(=O)c1ccc2c(c1)CCN(C(=O)C1CC1)C2C(=O)Nc1ccc(C(O)(C(F)(F)F)C(F)(F)F)cc1` (stereo not shown) [Example 14, 2-(Cyclopropanecarbonyl)-6-(ethylsulfonyl)-N-(4-(1,1,1,3,3,3-hexafluoro-2-hydroxypropan-2-yl)phenyl)-1,2,3,4-tetrahydroisoquinoline-1-carboxamide] came in with an Emax of 98.8% and an IC50 of 83.4 nM.
`CC(=O)N1CCc2cc(S(C)(=O)=O)ccc2C1C(=O)Nc1cc(Cl)c(C2=CCOCC2)c(Cl)c1` (stereo not shown) [Example 17, 2-Acetyl-N-(3,5-dichloro-4-(3,6-dihydro-2H-pyran-4-yl)phenyl)-6-(methylsulfonyl)-1,2,3,4-tetrahydroisoquinoline-1-carboxamide]: in data set [1], the maximum response (Emax) was 95.9% and the IC50 worked out at 67.1 nM.
For `CCS(=O)(=O)c1ccc2c(c1)CCN(C(C)=O)C2C(=O)Nc1cc(Cl)c(C2=CCOCC2)c(Cl)c1` (stereo not shown) [Example 18, 2-Acetyl-N-(3,5-dichloro-4-(3,6-dihydro-2H-pyran-4-yl)phenyl)-6-(ethylsulfonyl)-1,2,3,4-tetrahydroisoquinoline-1-carboxamide], in that order: 95.8% and 107 nM.
In data set [1], `CCS(=O)(=O)c1ccc2c(c1)CCN(C=O)C2C(=O)Nc1ccc(C(O)(C(F)(F)F)C(F)(F)F)cc1` (stereo not shown) [Example 19, 6-(Ethylsulfonyl)-2-formyl-N-(4-(1,1,1,3,3,3-hexafluoro-2-hydroxypropan-2-yl)phenyl)-1,2,3,4-tetrahydroisoquinoline-1-carboxamide] gave an Emax of 101% and an IC50 of 14.7 nM.
The like results for `CC(=O)N1CCc2cc(S(=O)(=O)CC3CC3)ccc2C1C(=O)Nc1ccc(C(O)(C(F)(F)F)C(F)(F)F)cc1` (stereo not shown) [Example 21, 2-Acetyl-6-((cyclopropylmethyl)sulfonyl)-N-(4-(1,1,1,3,3,3-hexafluoro-2-hydroxypropan-2-yl)phenyl)-1,2,3,4-tetrahydroisoquinoline-1-carboxamide] were, in that order, 102% and 12.5 nM.
For `CNS(=O)(=O)c1ccc2c(c1)CCN(C(C)=O)C2C(=O)Nc1ccc(C(O)(C(F)(F)F)C(F)(F)F)cc1` (stereo not shown) [Example 22, 2-Acetyl-N-(4-(1,1,1,3,3,3-hexafluoro-2-hydroxypropan-2-yl)phenyl)-6-(N-methylsulfamoyl)-1,2,3,4-tetrahydroisoquinoline-1-carboxamide], in that order: 102% and 17.8 nM.
